This is an account of results in patent EP0554284B1, “PEPTIDE-BASED INHIBITORS OF HIV REPLICATION” (priority 1990, dated 1996).

For assay [1], the system named is variant of TAR which does not bind tat. The assay is described as follows: RNA gel mobility shift assay, binding to non-functional TAR variant (specificity). On the set-up: species or system HIV. Conditions: relative to binding to the non-functional TAR variant; result in words. The method, then: (§1) TAR-binding affinity of the oligopeptides relative to HIV tat(1-86) and relative to tat fragments representing the tat basic domain, was evaluated by RNA gel mobility shift assay using as ligand a truncated functional form of TAR RNA having the sequence shown below.
Synthesis of the TAR fragment and its variant analogue was accomplished as described by Roy et al. in Genes and Development, 1990, 4:1365. The TAR-binding assay was also performed in the manner reported by Roy et al., supra, which is incorporated herein by reference.

Assay [2] concerns HIV (strain NL4-3). The class given is cell-based. The source says:
Controls used water in place of peptide.

The test system of assay [3] is truncated functional form of TAR RNA. Kind of assay: RNA gel mobility shift assay, TAR binding. The arrangement: species or system HIV. Conditions: judged relative to tat(1-86) and the oligopeptide representing the tat basic domain; result in words. As for the experimental part:
This assay generally involves the incubation of a selected oligopeptide with gel-purified, radio-labelled TAR RNA, or tat-binding fragment of TAR RNA, that has been produced either by direct synthesis or through transcription of a corresponding DNA template. Samples are loaded onto non-denaturing polyacrylamide gel and subjected to electrophoresis, and then migration of labelled RNA through the gel is visualized on gel-exposed, X-ray film. Oligopeptides which bind TAR are identified in this assay by their characteristic, retarded migration on the gel, relative to TAR RNA to which no oligopeptide has bound. In this mobility shift assay, oligopeptides having an "enhanced" affinity for binding TAR RNA will resolve on the gel as bands which, in addition to displaying the retarded migration pattern characteristic of TAR-binding oligopeptides, will also appear with greater intensity and/or size than a band containing TAR RNA bound to tat (1-86).
as §1
Synthesis of the TAR fragment and its variant analogue was accomplished as described by Roy et al. in Genes and Development, 1990, 4:1365. […]

In assay [4] the test system is yeast tRNA. Kind of assay: TAR binding compared with yeast tRNA binding (specificity). Particulars: result in words.
Assay [5] deals with tat. Particulars: literature, Green et al; cited from earlier work.

Regarding `CC(=O)N[C@H](CCCNC(=N)N)C(=O)N[C@H](CCCNC(=N)N)C(=O)N[C@H](CCCNC(=N)N)C(=O)N[C@H](CCCNC(=N)N)C(=O)N[C@H](CCCNC(=N)N)C(=O)N[C@H](CCCNC(=N)N)C(=O)N[C@H](CCCNC(=N)N)C(=O)N[C@H](CCCNC(=N)N)C(=O)N[C@H](CCCNC(=N)N)C(N)=O` [peptide 4C, acetyl-[D-Arg]9-NH2], the “specificity for binding to the functional TAR fragment” value in assay [1] is recorded as “comparable to the wild type basic domain”. The “inhibition of viral replication, as measured by p24 assay” value in assay [2] (HuT78 cells pretreated with 5µM peptide for 7 or 14 days, 10µM after infection, p24 at four and seven days after infection) is at least 95%. In addition, the formation of syncytia entry in assay [2] (visual inspection of infected HuT78 cells, same treatment as p24 assay) was “completely inhibited”. The TAR-binding affinity result in assay [3] is reported as “comparable to the basic domain of wild type tat”. Also, the specificity of binding result in assay [4] is on record as “confirmed”.

As to `CC(=O)N[C@H](CCCNC(=N)N)C(=O)N[C@H](CCCCN)C(=O)N[C@H](CCCCN)C(=O)N[C@H](CCCNC(=N)N)C(=O)N[C@H](CCCNC(=N)N)C(=O)N[C@H](CCC(N)=O)C(=O)N[C@H](CCCNC(=N)N)C(=O)N[C@H](CCCNC(=N)N)C(=O)N[C@H](CCCNC(=N)N)C(N)=O` [peptide 4G], the “effects on HIV inhibition” value in assay [2] (5µM pretreatment of HuT78 cells, 7 or 14 days, result in words) is recorded as “positive effects on HIV inhibition”.

As to Arg-Lys-Lys-Arg-Arg-Gln-Arg-Arg-Arg, the tat antagonist activity entry in assay [5] is “Weak tat antagonist activity”.
